Laboratory results published in patent publication US8318774B2, “Compounds involving mGluR5 receptor regulation and methods of making the compounds” (Gruenenthal GmbH, priority 2006, dated 2012).

These compounds were tested against T1, mGluR5 receptor (pig) (Sus scrofa, UniProt I3LUI7) (assay: Inhibition of [3H]-MPEP binding in the mGluR5 receptor binding assay (pig brain homogenate)). Settings: 5 nM [3H]-MPEP, 60 min, room temperature, read-out: IC50 mGluR5 receptor (pig) [3H]-MPEP bonding.
T1 construct: 450 μg of protein from brain homogenate are incubated; from tissue; host or cells: pig brain halves without medulla, cerebellum and pons (homogenate, differential centrifugation)
T1 sequence (I3LUI7 19-1212): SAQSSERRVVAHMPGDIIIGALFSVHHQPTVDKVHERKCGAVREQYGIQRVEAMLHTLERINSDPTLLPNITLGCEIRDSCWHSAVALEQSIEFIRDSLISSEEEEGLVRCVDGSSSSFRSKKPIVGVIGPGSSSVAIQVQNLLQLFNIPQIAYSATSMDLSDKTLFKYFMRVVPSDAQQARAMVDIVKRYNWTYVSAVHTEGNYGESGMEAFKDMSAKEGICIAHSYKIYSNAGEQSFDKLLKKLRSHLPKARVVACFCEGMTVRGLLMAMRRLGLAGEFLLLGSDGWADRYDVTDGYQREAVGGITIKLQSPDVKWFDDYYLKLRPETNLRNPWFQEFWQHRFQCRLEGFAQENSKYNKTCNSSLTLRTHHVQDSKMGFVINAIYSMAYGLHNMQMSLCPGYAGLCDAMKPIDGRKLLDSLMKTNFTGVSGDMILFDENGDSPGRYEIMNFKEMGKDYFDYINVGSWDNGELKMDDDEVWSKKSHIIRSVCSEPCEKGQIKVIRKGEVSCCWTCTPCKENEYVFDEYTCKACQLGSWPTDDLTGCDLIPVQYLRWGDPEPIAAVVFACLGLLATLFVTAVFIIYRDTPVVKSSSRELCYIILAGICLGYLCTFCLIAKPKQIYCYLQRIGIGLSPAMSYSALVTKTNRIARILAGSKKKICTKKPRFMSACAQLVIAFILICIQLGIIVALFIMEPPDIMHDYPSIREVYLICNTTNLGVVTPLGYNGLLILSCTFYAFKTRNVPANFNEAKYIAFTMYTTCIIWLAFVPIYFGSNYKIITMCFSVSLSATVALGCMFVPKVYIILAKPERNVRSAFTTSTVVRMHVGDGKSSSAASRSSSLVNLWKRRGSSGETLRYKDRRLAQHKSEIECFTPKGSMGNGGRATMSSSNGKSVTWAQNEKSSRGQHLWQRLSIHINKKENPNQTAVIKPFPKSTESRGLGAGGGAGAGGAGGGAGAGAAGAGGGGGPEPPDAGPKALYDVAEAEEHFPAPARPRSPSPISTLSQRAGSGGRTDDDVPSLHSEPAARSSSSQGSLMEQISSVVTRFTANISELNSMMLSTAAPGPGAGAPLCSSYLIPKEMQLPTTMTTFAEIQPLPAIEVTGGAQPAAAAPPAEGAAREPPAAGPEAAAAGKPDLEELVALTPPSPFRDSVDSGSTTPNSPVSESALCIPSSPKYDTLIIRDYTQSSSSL
Method: I. Method for Determining the Inhibition of the [^3H]-MPEP Binding in the mGluR5 Receptor Binding Assay
Pig brain homogenate is produced by the homogenisation (Polytron PT 3000, Kinematica AG, 10,000 rpm for 90 seconds) of pig brain halves without medulla, cerebellum and pons, in a buffer with pH 8.0 (30 mM Hepes, Sigma, order no. H3375+1 “Complete Tablet” to 100 ml, Roche Diagnostics, order no. 1836145) in the ratio 1:20 (brain weight/volume) and differential centrifuging at 900×g and 40,000×g. 450 μg of protein from brain homogenate are incubated in 250 μl incubation preparation in 96-well microtiter plates, for 60 minutes at room temperature in a buffer (as above), along with 5 nM ^3[H]-MPEP (Tocris, order no. […]
Subsequently, the preparations are filtered on unifilter plates with fibreglass filter mats (Perkin Elmer, order no. 6005177) using a Brandel Cell Harvester (Brandel, TYP Robotic 9600) and subsequently washed with buffer (as above) 3 times with 250 μl per sample in each case. The filter plates are subsequently dried for 60 min at 55° C. Subsequently 30 μl Ultima Gold™ scintillator (Packard Bioscience, order no. 6013159) are added to each well, and after 3 hours the samples are measured with the β-counter (Mikrobeta, Perkin Elmer). The non-specific binding is determined by adding 10 μM MPEP (Tocris, order no. 1212).
In the case of `CN(CCCN(C)c1nccs1)C(=O)C#Cc1ccccc1` [Example 1], the IC50 is reported as 0.99 µM. Compound `O=C(C#Cc1ccccc1)N1CCC(Nc2nccs2)CC1` [Example 2, 4-(thiazol-2-yl-amino)-1-(3-phenyl-propiolyl)piperidine] has an IC50 of 3.04 µM. Compound `O=C(C#Cc1ccccc1)N1CC2CN(c3nccs3)CC2C1` (stereo not drawn) [Example 3, 3-(thiazol-2-yl)-7-(3-phenyl)-propiolyl-3,7-diaza-bicyclo[3.3.0]octane] has an IC50 of 4.46 µM. `CN(c1nccs1)C1CCN(C(=O)C#Cc2ccccc2)CC1` [Example 4, 4-(methyl-thiazol-2-yl-amino)-1-(3-phenyl-propiolyl)piperidine] gave an IC50 of 4.22 µM. For `O=C(C#Cc1ccccc1)NC1CCN(c2nccs2)CC1` [Example 5, 3-phenyl-N-(1-(thiazol-2-yl)piperidin-4-yl)propiolamide], the IC50 was 7.41 µM. `CN(C(=O)C#Cc1ccccc1)C1CCN(c2nccs2)CC1` [Example 6, N-methyl-3-phenyl-N-(1-(thiazol-2-yl)piperidin-4-yl)propiolamide] showed an IC50 of 1 µM.

Same assay, conditions: 1 μM test compound, 5 nM [3H]-MPEP, 60 min, room temperature, read-out: % inhibition of mGluR5 receptor (pig) [3H]-MPEP bonding at 1 μM
Work on `Cc1csc(N2CCC(NC(=O)C#Cc3ccccc3)CC2)n1` [Example 10, N-(1-(4-methyl-thiazol-2-yl)piperidin-4-yl)-3-phenyl-propiolamide] yielded an inhibition at 1 µM of 36%. `COc1cccc(C#CC(=O)NC2CCN(c3nc(C)cs3)CC2)c1` [Example 11, N-(1-(4-methyl-thiazol-2-yl)piperidin-4-yl)-3-(3-methoxyphenyl)-propiolamide] was tested, and the inhibition at 1 µM was 26%. With `Cc1csc(N2CCC(NC(=O)C#Cc3ccccc3F)CC2)n1` [Example 16, 3-(2-fluoro-phenyl)-N-(1-(4-methyl-thiazol-2-yl)piperidin-4-yl)-propiolamide] the inhibition at 1 µM was 22%. Work on `Cc1csc(N2CCC(NC(=O)C#Cc3ccc(C)c(F)c3)CC2)n1` [Example 20, 3-(3-fluoro-4-methyl-phenyl)-N-(1-(4-methyl-thiazol-2-yl)piperidin-4-yl)-propiolamide] yielded an inhibition at 1 µM of 39%. Work on `Cc1csc(N2CCC(NC(=O)C#Cc3cccc(C(F)(F)F)c3)CC2)n1` [Example 21, N-(1-(4-methyl-thiazol-2-yl)piperidin-4-yl)-3-(3-trifluoromethyl-phenyl)-propiolamide] yielded an inhibition at 1 µM of 32%. In the case of `Cc1cccc(C#CC(=O)NC2CCN(c3nc(C)cs3)CC2)c1` [Example 22, N-(1-(4-methyl-thiazol-2-yl)piperidin-4-yl)-3-(3-tolyl)-propiolamide], the inhibition at 1 µM is reported as 79%.
